Experimental data taken from US4588715A, “Heptenoic acid derivatives” (Sandoz, Inc., priority 1984, dated 1986).
Several values for one entry are separate records, joined by “and”; a condition that tells them apart may be missing. Equal entries are not always repeated. Where two headings read alike, the source gives them in different places.

Tests used:
[1] = target: T1, HMG-CoA reductase (Rattus norvegicus, UniProt P51639); assay: Test A. In Vitro Microsomal Assay of HMG-CoA Reductase Inhibition; type: biochemical; conditions: saponified products M=Na, unsaponified products tested in DMA
T1 construct: the microsomes are the source of the HMG-CoA reductase enzyme; from tissue; host or cells: liver microsomes, male Sprague-Dawley rats
T1 sequence (P51639 1-887): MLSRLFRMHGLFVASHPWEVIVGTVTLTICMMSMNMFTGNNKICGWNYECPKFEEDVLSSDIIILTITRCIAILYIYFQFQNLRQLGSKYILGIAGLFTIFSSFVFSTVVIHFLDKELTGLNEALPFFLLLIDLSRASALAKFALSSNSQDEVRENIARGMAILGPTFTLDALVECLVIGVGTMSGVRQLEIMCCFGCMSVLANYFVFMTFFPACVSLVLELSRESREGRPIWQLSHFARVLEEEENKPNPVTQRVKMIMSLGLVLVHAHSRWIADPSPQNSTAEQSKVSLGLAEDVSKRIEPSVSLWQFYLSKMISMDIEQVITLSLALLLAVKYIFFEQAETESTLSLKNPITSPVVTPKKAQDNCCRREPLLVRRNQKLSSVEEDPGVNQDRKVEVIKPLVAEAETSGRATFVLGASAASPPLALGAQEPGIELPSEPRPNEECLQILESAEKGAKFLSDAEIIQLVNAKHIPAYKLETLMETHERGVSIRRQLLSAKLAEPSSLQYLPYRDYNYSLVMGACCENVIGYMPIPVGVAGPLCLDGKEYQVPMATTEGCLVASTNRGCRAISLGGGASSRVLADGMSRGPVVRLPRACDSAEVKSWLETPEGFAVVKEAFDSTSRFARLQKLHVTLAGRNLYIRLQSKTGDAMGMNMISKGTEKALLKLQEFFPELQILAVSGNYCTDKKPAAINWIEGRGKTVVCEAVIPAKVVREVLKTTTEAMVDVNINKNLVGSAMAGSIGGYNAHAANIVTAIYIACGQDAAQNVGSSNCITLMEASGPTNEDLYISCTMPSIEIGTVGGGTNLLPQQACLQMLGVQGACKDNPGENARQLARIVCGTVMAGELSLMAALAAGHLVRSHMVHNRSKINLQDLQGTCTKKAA
Description: Test A. In Vitro Microsomal Assay of HMG-CoA Reductase Inhibition
200 μl. aliquots (1.08-1.50 mg./ml.) of rat liver microsomal suspensions, freshly prepared from male Sprague-Dawley rats (150-225 g. body weight), in Buffer A with 10 mmol. dithiothreitol are incubated with 10 μl. test substance dissolved in dimethylacetamide and assayed for HMG-CoA reductase activity as described by Ackerman et al., J. Lipid Res. 18,408-413 (1977). In the assay the microsomes are the source of the HMG-CoA reductase enzyme which catalyzes the reduction of HMG-CoA to mevalonate. The assay employs a chloroform extraction to separate the product, [^14 C]mevalonolactone, formed by the HMG-CoA reductase reaction from the subsubstrate, [^14 C]HMG-CoA. [^3 H]mevalonolactone is added as an internal reference. Inhibition of HMG-CoA reductase is calculated from the decrease in specific activity [^14 C/^3 H]mevalonate) of test groups compared to controls.
IC50 is the concentration of the test substance in the assay system

[2] = test system: Cholesterol Biosynthesis; assay: Test C: In Vivo Cholesterol Biosynthesis Inhibition Tests; parameters: species or system male Wistar Royal Hart rats; conditions: for ED50: Rattus norvegicus
Description: Test C: In Vivo Cholesterol Biosynthesis Inhibition Tests: In vivo studies utilize male Wistar Royal Hart rats weighing 150±20 g. which have been kept for 7-10 days on an altered light cycle (6:30 A.M.-6:30 P.M. dark) housed two per cage and fed powdered Purina Rat Chow and water ad libitum. Three hours before the diurnal maximum of cholesterol synthesis at mid-dark, the rats are administered the test substances dissolved or as a suspension in 0.5% carboxymethylcellulose in a volume of 1 ml./100 g. body weight. Controls receive vehicle alone. One hour after receiving the test substance, the rats are injected intraperitoneally with about 25 μCi/100 g. body weight of sodium [1-^14 C]acetate 1-3 mCi/mmol. Two hours after mid-dark, blood samples are obtained under sodium hexobarbitol anesthesia and the serum separated by centrifugation.
Serum samples are saponified and neutralized, and the 3β-hydroxy sterols are precipitated with digitonin basically as described by Sperry et al., J. Biol. Chem. 187,97 (1950). The [^14 C]digitonides are then counted by liquid scintillation spectrometry. After correcting for efficiencies, the results are calculated in nCi (nanocuries) of sterol formed per 100 ml. of serum. Inhibition of sterol synthesis is calculated from the reduction in the nCi of sterols formed from test groups compared to controls.

[3] = test system: Cholesterol Biosynthesis; assay: Test B. In Vitro Cell Culture Cholesterol Biosynthesis Screen (Fu5AH rat hepatoma cell line); type: cell-based; conditions: Fu5AH rat hepatoma cells, [14C]acetate, 3 hours; for inhibition at 10 µM: concentration 10 μM; for inhibition at 1 µM: concentration 1 μM
Description: Test B. In Vitro Cell Culture Cholesterol Biosynthesis Screen
The cell culture is prepared as follows: Stock monolayer cultures of the Fu5AH rat hepatoma cell line (originally obtained from G. Rothblat; see Rothblat, Lipids 9, 526-535 (1974) are routinely maintained in Eagle's Minimum Essential Medium (EMEM) supplemented with 10% fetal bovine serum (FBS) in 75 cm^2. tissue culture flasks. For these studies, when the cultures reach confluence, they are removed by mild enzymatic treatment with 0.25% trypsin in Hanks' balanced salt solution (without calcium and magnesium). After centrifugation of the cell suspension and aspiration of the enzymatic solution, the cell pellet is resuspended in an appropriate volume of media for seeding into 60 mm. tissue culture dishes. The cultures are incubated at 37° C. in an atmosphere of high humidity and 5% carbon dioxide. When the cultures are confluent (approximately 5 days), they are ready for use. The culture media is aspirated from the dishes and replaced with 3 ml. of EMEM supplemented with 5 mg./ml. of delipidized serum protein (DLSP) prepared by the method of Rothblat et al., In Vitro 12, 554-557 (1976). […] Enhanced 3-hydroxy-3-methylglutaryl Coenzyme A reductase (HMG-CoA reductase) activity is measurable in the cells in response to the lack of exogenous sterol. Following approximately 24 hours incubation at 37° C. in the DLSP supplemented media, the assay is initiated by the addition of 3μCi of [^14 C]acetate and the test substances solubilized in dimethylsulfoxide (DMSO) or distilled water. Solvent controls and compactin-treated controls are always prepared. Triplicate 60 mm. tissue culture dishes are run for each group. After 3 hours incubation at 37° C., the cultures are examined microscopically using an inverted phase contrast microscope. Notations are made of any morphological changes which may have occurred in the cultures. The media is aspirated and the cell layer is gently washed twice with 0.9% sodium chloride solution (saline). The cell layer is then harvested in 3 ml. of 0.9% saline by gentle scraping with a rubber policeman and transferred to a clean glass tube with Teflon lined cap. The dishes are rinsed with 3 ml. of 0.9 % saline and rescraped, and the cells are combined with the first harvest. The tubes are centrifuged at 1500 r.p.m. for 10 minutes in an IEC PR-J centrifuge, and the supernatant is aspirated.
The cells are then extracted as follows: One ml. of 100% ethanol is added to the cell pellet followed by sonication for 10 seconds with a "LO" setting of 50 on a Bronwell Biosonik IV. One hundred μL. are taken for protein determination. One ml. of 15% potassium hydroxide (KOH) is added, and the samples are thoroughly vortexed. Saponification is accomplished by heating the ethanol-KOH treated samples at 60° C. for 60 minutes in a water bath. Following dilution of the samples with 2 ml. of distilled water, they are extracted three times with 7 ml. of petroleum ether. The petroleum ether extracts are then washed three times with 2 ml. of distilled water and finally taken to dryness under a stream of nitrogen.
The obtained samples are then analyzed by thin layer chromatography (TLC) as follows: Residues from the petroleum ether extraction are taken up in a small volume of hexane and spotted on silica gel 60 TLC plates (E. Merck). Development of the plates is carried out in a 150 parts by volume hexane: 50 parts by volume diethyl ether: 5 parts by volume glacial acetic acid solvent system using a three phase development procedure. Visualization is accomplished in an iodine vapor chamber. The plates are divided into five sections such that each section contains the molecules having the following approximate Rf values: section 1-0-0.4, section 2-0.4-0.55, section 3-0.55-0.7, section 4-0.7-0.9 and section 5-0.9-1.0. Section 2 contains the non-saponifiable sterols. The five sections of the TLC plates are scraped into scintillation vials. […]

Row | Compound | inhibition at 10 µM [3] [%] | IC50 ([1]; IC50, rat liver microsomes) | further results
1 | CC[C@H](C)C(=O)O[C@H]1CCC=C2C=C[C@H](C)[C@H](CC[C@@H]3C[C@@H](O)CC(=O)O3)[C@H]21 [compactin, reference compound] |  |  | IC50 ([1]; rat liver microsomes, read-out: IC50): 0.8 µM; ED50 ([2]; standard, serum sterol synthesis, rats, read-out: ED50): 3.5 mg/kg; inhibition at 0.08 µM ([3]; concentration 0.08 μM): 50%
2 | C[Si](c1ccccc1)(c1ccccc1)c1ccccc1/C=C/[C@@H]1C[C@@H](O)CC(=O)O1 (relative stereo) [Example 3 (Ia"'), 4-Hydroxy-6{2-[2-(methyldiphenylsilyl)phenyl]ethenyl}-2H-tetrahydropyran-2-one(trans,trans)] | 74 |  | 
3 | Cc1cc(C)c(/C=C/[C@@H]2C[C@@H](O)CC(=O)O2)c([Si](C)(C)c2ccccc2)c1 (relative stereo) [Example 6a (Ia"')] | 73 |  | 
4 | Cc1cc(C)c(/C=C/[C@@H](O)C[C@@H](O)CC(=O)O)c([Si](C)(C)c2ccccc2)c1 (relative stereo) [Example 6a (Ia^s)] |  | 6.9 µM | 
5 | CCOC(=O)C[C@H](O)C[C@H](O)/C=C/c1c(C)cc(C)cc1[Si](C)(C)c1ccccc1 (relative stereo) [Example 5a (Ia')] |  | 14.7 µM | inhibition at 1 µM [3]: 47%
6 | Cc1cccc([Si](C)(c2ccccc2)c2ccccc2)c1/C=C/[C@@H](O)C[C@@H](O)CC(=O)O (relative stereo) [Example 8b (Ia^s)] |  | 52.4 µM | 
7 | Cc1cc(Cl)cc([Si](C)(C)c2ccccc2)c1/C=C/[C@@H](O)C[C@@H](O)CC(=O)O (relative stereo) [Example 6b (Ia^s)] |  | 17.1 µM and 14.2 µM | 
8 | CC[C@H](C)C(=O)O[C@H]1C[C@@H](C)C=C2C=C[C@H](C)[C@H](CC[C@@H]3C[C@@H](O)CC(=O)O3)[C@H]21 [Mevinolin] |  |  | ED50 [2]: 0.41 mg/kg
9 | Cc1cccc([Si](C)(C)c2ccccc2)c1/C=C/[C@@H](O)C[C@@H](O)CC(=O)O (relative stereo) [Example 6g (Ia^s)] |  | 4.3 µM | 
10 | Cc1cc(Cl)cc([Si](C)(c2ccccc2)c2ccccc2)c1/C=C/[C@@H]1C[C@@H](O)CC(=O)O1 (relative stereo) [Example 8a (Ia"')] | 33 |  | 
11 | Cc1cc(Cl)cc([Si](C)(C)c2ccccc2)c1/C=C/[C@@H]1C[C@@H](O)CC(=O)O1 (relative stereo) [Example 6b (Ia"')] |  | 16.4 µM | 
12 | CCOC(=O)C[C@H](O)C[C@H](O)/C=C/c1c(C)ccc(C)c1[Si](C)(C)c1ccccc1 (relative stereo) [Example 9 (Ib'), Ethyl 7-[3,6-dimethyl-(2-dimethylphenylsilyl)-phenyl]-3,5-dihydroxy hept-6-enoate, (erythro,trans)] |  | 28.1 µM | inhibition at 1 µM [3]: 19%
13 | Cc1cccc([Si](C)(C)c2ccccc2)c1/C=C/[C@@H]1C[C@@H](O)CC(=O)O1 (relative stereo) [Example 6g (Ia"')] | 65 | 27.2 µM | % Inhibition ([2]; dose 48 mg/kg, serum sterol synthesis, rats): 57%
14 | C[Si](C)(c1ccccc1)c1ccccc1/C=C/[C@@H]1C[C@@H](O)CC(=O)O1 (relative stereo) [Example 4 (Ia"'), 4-Hydroxy-6{2-[2-(dimethylphenylsilyl)phenyl]ethenyl}-2H-tetrahydropyran-2-one] | 56 |  | 
15 | CCOC(=O)C[C@H](O)C[C@H](O)/C=C/c1c(C)cc(Cl)cc1[Si](C)(c1ccccc1)c1ccccc1 (relative stereo) [Example 7a (Ia')] | 17 |  | 
16 | Cc1ccc(C)c([Si](C)(C)c2ccccc2)c1/C=C/[C@@H]1C[C@@H](O)CC(=O)O1 (relative stereo) [Example 10 (Ib"'), 6-{2-[3,6-dimethyl-2-(dimethylphenylsilyl)phenyl]ethenyl}4-hydroxy-tetrahydro-2H-pyran-2-one (trans,trans)] | 63 | 24.4 µM | 
17 | CCOC(=O)C[C@H](O)C[C@H](O)/C=C/c1c(C)cc(OC)cc1[Si](C)(C)c1ccccc1 (relative stereo) [Example 5e (Ia')] | 28 |  | 
18 | Cc1ccc(C)c([Si](C)(C)c2ccccc2)c1/C=C/[C@@H](O)C[C@@H](O)CC(=O)O (relative stereo) [Example 10 (Ib^s)] |  | 9 µM | 
